Assay: Lung S9 metabolism
Format: in vitro ADME
Conditions: human lung S9; qualitative observation of O-sulfate metabolite peak
Experimental: Lung S9 fractions from human (lot 1410245) were purchased from XenoTech LLC (Lenexa, Kans.). NADPH (Sigma Aldrich, N1630) and 3-phosphoadenosine 5-phosphosulfate (PAPS) (Sigma Aldrich, A1651) were purchased from Sigma Aldrich (St. Louis, Mo.). Acetonitrile and water were obtained from VWR (Radnor, Pa.) and were of HPLC grade or better. Raloxifene and formic acid was purchased from Sigma Aldrich (St. Louis, Mo.). Lung S9 incubations were performed in a water bath at 37° C. in a 96-well polypropylene plate. […] All samples were centrifuged at 2250 g for 10 minutes at 5° C. Supernatant […] was taken from the centrifuged samples and diluted into 1004 HPLC water containing internal standard. […] Mobile Phase A consisted of Water+0.2% formic acid and Mobile Phase B consisted of acetonitrile+0.2% formic acid. Peak integration was accomplished using Gubbs GMSU software (Gubbs Inc., Alpharetta, Ga.). For each sample, peak area ratios were calculated by dividing the analyte peak area by the internal standard peak area. […] Determination of sulfate metabolite formation was made qualitatively by observation of early-eluting peak in the parent ion channel which, based on historical internal data, corresponded to the 0-sulfate metabolite of each parent compound.

| SMILES | Sulfate Appearance |
| --- | --- |
| CCc1cc(O)ccc1-c1ccc2c(-c3nc4c([nH]3)CN(C(C)C)[C@H](C(=O)N3CC[C@H](N(C)C)C3)C4)n[nH]c2c1 [Compound 6, ((S)-3-(dimethylamino)pyrrolidin-1-yl)((S)-2-(6-(2-ethyl-4-hydroxyphenyl)-1H-indazol-3-yl)-5-isopropyl-4,5,6,7-tetrahydro-3H-imidazo[4,5-c]pyridin-6-yl)methanone] | Yes |
| CCc1cc(O)ccc1-c1ccc2c(-c3nc4c([nH]3)CN(C)[C@H](C(=O)N3CCN(C)C[C@@H]3C)C4)n[nH]c2c1 [Compound 3, ((S)-2,4-dimethylpiperazin-1-yl)((S)-2-(6-(2-ethyl-4-hydroxyphenyl)-1H-indazol-3-yl)-5-methyl-4,5,6,7-tetrahydro-3H-imidazo[4,5-c]pyridin-6-yl)methanone] | Yes |
| CCCN1Cc2[nH]c(-c3n[nH]c4cc(-c5ccc(O)cc5CC)ccc34)nc2C[C@H]1C(=O)N1CCN(CCO)CC1 [Compound 1, (S)-(2-(6-(2-ethyl-4-hydroxyphenyl)-1H-indazol-3-yl)-5-propyl-4,5,6,7-tetrahydro-3H-imidazo[4,5-c]pyridin-6-yl)(4-(2-hydroxyethyl)piperazin-1-yl)methanone] | Yes |
| CCc1cc(O)ccc1-c1ccc2c(-c3nc4c([nH]3)CN(C)[C@H](C(=O)N3CCN(CCO)C[C@H]3C)C4)n[nH]c2c1 [Compound 5, ((S)-2-(6-(2-ethyl-4-hydroxyphenyl)-1H-indazol-3-yl)-5-methyl-4,5,6,7-tetrahydro-3H-imidazo[4,5-c]pyridin-6-yl)((R)-4-(2-hydroxyethyl)-2-methylpiperazin-1-yl)methanone] | Yes |
| CCc1cc(O)ccc1-c1ccc2c(-c3nc4c([nH]3)CN(C(C)C)[C@H](C(=O)N3CCCN(C)CC3)C4)n[nH]c2c1 [Compound 4, (S)-(2-(6-(2-ethyl-4-hydroxyphenyl)-1H-indazol-3-yl)-5-isopropyl-4,5,6,7-tetrahydro-3H-imidazo[4,5-c]pyridin-6-yl)(4-methyl-1,4-diazepan-1-yl)methanone] | Yes |
| CCCN1Cc2[nH]c(-c3n[nH]c4cc(-c5ccc(O)cc5CC)ccc34)nc2C[C@H]1C(=O)N1C[C@@H]2C[C@H]1CN2C [Compound 2, ((S)-2-(6-(2-ethyl-4-hydroxyphenyl)-1H-indazol-3-yl)-5-propyl-4,5,6,7-tetrahydro-3H-imidazo[4,5-c]pyridin-6-yl)((1S,4S)-5-methyl-2,5-diazabicyclo[2.2.1]heptan-2-yl)methanone] | Yes |

Results, then the compound that gave them:

| Sulfate Appearance | SMILES |
| --- | --- |
| Yes | CCc1cc(O)c(F)cc1-c1ccc2c(-c3nc4c([nH]3)CN(C(C)C)[C@H](C(=O)N3CCCN(C)CC3)C4)n[nH]c2c1 [Compound C-4, (S)-(2-(6-(2-ethyl-5-fluoro-4-hydroxyphenyl)-1H-indazol-3-yl)-5-isopropyl-4,5,6,7-tetrahydro-3H-imidazo[4,5-c]pyridin-6-yl)(4-methyl-1,4-diazepan-1-yl)methanone] |
| Yes | CCc1cc(O)c(F)cc1-c1ccc2c(-c3nc4c([nH]3)CN(C(C)C)[C@H](C(=O)N3CC[C@H](N(C)C)C3)C4)n[nH]c2c1 [Compound C-6] |
| Yes | CCc1cc(O)c(F)cc1-c1ccc2c(-c3nc4c([nH]3)CN(C)[C@H](C(=O)N3CCN(CCO)C[C@H]3C)C4)n[nH]c2c1 [Compound C-5, ((S)-2-(6-(2-ethyl-5-fluoro-4-hydroxyphenyl)-1H-indazol-3-yl)-5-methyl-4,5,6,7-tetrahydro-3H-imidazo[4,5-c]pyridin-6-yl)((R)-4-(2-hydroxyethyl)-2-methyl-piperazin-1-yl)methanone] |
| Yes | CCc1cc(O)c(F)cc1-c1ccc2c(-c3nc4c([nH]3)CN(C)[C@H](C(=O)N3CCN(C)C[C@@H]3C)C4)n[nH]c2c1 [Compound C-3, ((S)-2,4-dimethylpiperazin-1-yl)((S)-2-(6-(2-ethyl-5-fluoro-4-hydroxyphenyl)-1H-indazol-3-yl)-5-methyl-4,5,6,7-tetrahydro-3H-imidazo[4,5-c]pyridin-6-yl)methanone] |
| Yes | CCCN1Cc2[nH]c(-c3n[nH]c4cc(-c5cc(F)c(O)cc5CC)ccc34)nc2C[C@H]1C(=O)N1C[C@@H]2C[C@H]1CN2C [Compound C-2] |
| Yes | CCCN1Cc2[nH]c(-c3n[nH]c4cc(-c5cc(F)c(O)cc5CC)ccc34)nc2C[C@H]1C(=O)N1CCN(CCO)CC1 [Compound C-1, (S)-(2-(6-(2-ethyl-5-fluoro-4-hydroxyphenyl)-1H-indazol-3-yl)-5-propyl-4,5,6,7-tetrahydro-3H-imidazo[4,5-c]pyridin-6-yl)(4-(2-hydroxyethyl)piperazin-1-yl)methanone] |

— patent US11713315B2, “5 to 7 membered heterocyclic amides as JAK inhibitors” (priority 2018, dated 2023)
